One assay deals with A-431. Put plainly: GI50 determination, cell viability (Alamar Blue or Cell Titer Glo). The assay is classed as cell-based. To be noted: Homo sapiens; A-431 cells; cell viability measured at days 3, 5 and 7; triplicate experiments. Here is the method: (§1) COLO-792, SK-MEL-2, SK-MEL-28, IPC-298 and MEL-HO cells were cultured in RPMI media supplemented with 10% heat-inactivated and filtered FCS (hFCS). CHL-1, Hs852.T, G-361, RPMI-7951 and A-431 cells were cultured in DMEM media supplemented with 10% hFCS. HMCB cells were grown in MEM Earle's media containing 10% hFCS, 1 mM NaPyruvate, non-essential amino acids and 1 mM HEPES. Penicillin (at 50 I.U./mL), streptomycin (at 50 μg/mL), and L-glutamine (at 2 mM) or stable glutamine (supplied with the media) were additional ingredients in all culture media. All cells were grown in an incubator at 37° C. with 5% carbon dioxide.
(§2) Cells were counted and distributed to 96-well plates, with 1000-5000 cells per well. Each plate also contained wells with media alone for background measurements. Appropriate dilutions of BAY 123 or JQ1 were made in media in a titration series. When adherent cells were fully attached, media was removed and replaced with media containing BAY 123, JQ1, or DMSO as a control. Alternatively, appropriate volumes of BAY 123, JQ1 or DMSO were added to media using a dispenser (HP D300, Tecan).
(§3) Cell viability was measured at days 3, 5, and 7, with Alamar Blue (LifeTechnologies) staining and fluorescence detection (excitation 530nm, emission 590nm) in a microplate reader. Alternatively, Cell Titer Glo (Promega) was used, followed by luminescence detection. GI50 values were calculated from triplicate experiments using GraphPad prism software, using curves from plots of fluorescence or luminescence intensity vs. BAY 123 or JQ1 concentration in each cell line. […] Cell lines with a GI50 below 600 nM were defined as sensitive to BET inhibition.
(In general: The colour change of resazurin is a common sign of viable cells or microbes.)

Assay [1] deals with CHL-1. The description is as above. The assay is classed as cell-based. The settings on record: Homo sapiens; CHL-1 cells; cell viability measured at days 3, 5 and 7; triplicate experiments. As for the experimental part:
as §1, §2, §3

Assay [2] deals with COLO-792. The assay is described as above. The settings on record: Homo sapiens; COLO-792 cells; cell viability measured at days 3, 5 and 7; triplicate experiments. The assay is classed as cell-based. As for the experimental part:
as §1, §2, §3

Assay [3] concerns G-361. The description is as above. Format: cell-based. The settings on record: Homo sapiens; G-361 cells; cell viability measured at days 3, 5 and 7; triplicate experiments. As for the experimental part: as §1, §2, §3
In a further assay the test system is HMCB. The description is as above. Format: cell-based. The settings on record: Homo sapiens; HMCB cells; cell viability measured at days 3, 5 and 7; triplicate experiments. Here is the method: as §1, §2, §3
The subject of another assay is Hs 852.T. The assay is described as above. The settings on record: Homo sapiens; Hs 852.T cells; cell viability measured at days 3, 5 and 7; triplicate experiments. The assay is classed as cell-based. As for the experimental part: as §1, §2, §3
Another assay relates to IPC-298. The assay is described as above. Format: cell-based. The settings on record: Homo sapiens; IPC-298 cells; cell viability measured at days 3, 5 and 7; triplicate experiments. As for the experimental part:
as §1, §2, §3

A further assay has as its system MEL-HO. The description is as above. To be noted: Homo sapiens; MEL-HO cells; cell viability measured at days 3, 5 and 7; triplicate experiments. The assay is classed as cell-based. As for the experimental part:
as §1, §2, §3

For a further assay, the system named is RPMI-7951. The description is as above. Format: cell-based. To be noted: Homo sapiens; RPMI-7951 cells; cell viability measured at days 3, 5 and 7; triplicate experiments. As for the experimental part: as §1, §2, §3
The next assay concerns SK-MEL-28. The description is as above. Format: cell-based. The settings on record: Homo sapiens; SK-MEL-28 cells; cell viability measured at days 3, 5 and 7; triplicate experiments. Here is the method:
as §1, §2, §3

Assay [4] deals with SK-MEL-2. Described as above. The assay is classed as cell-based. The settings on record: Homo sapiens; SK-MEL-2 cells; cell viability measured at days 3, 5 and 7; triplicate experiments. As for the experimental part:
as §1, §2, §3

The subject of assay [5] is COLO-792. Put plainly: Basal oxygen consumption rate (OCR), XF96 extracellular flux analyzer. Format: cell-based, human. The settings on record: COLO-792 cells; FIG. 4.
Assay [6] deals with CHL-1. Described as above. The assay is classed as cell-based, human. The settings on record: CHL-1 cells; 1 μM, 20 h pre-incubation; FIG. 4. As for the experimental part:
(§4) The OCR in G-361, CHL-1, RPMI-7951 and SK-MEL-2 melanoma cells was measured using the XF96 extracellular flux analyzer (Seahorse Bioscience) under standard conditions and after pre-incubation with 1 μM BAY 123 or JQ1 inhibitor for 20 h. Baseline mitochondrial function and mitochondrial stress response were measured by OCR using the XF Mito Stress Test Kit with an XF96 extracellular flux analyzer (Seahorse Bioscience). […] The drug injection ports of the XF96 Assay Cartridge were loaded with assay reagents at a final concentration of 1 μM oligomycin (ATP synthase inhibitor), 0.5 μM FCCP (ionophore and mitochondrial uncoupler which disrupts proton gradient and ATP synthesis), 1 μM Rotenone (mitochondrial complex I inhibitor) and 1 μM Antimycin A (mitochondrial complex III inhibitor).
(§5) Briefly, cells treated with 1 μM BAY 123 or JQ1 inhibitor for 20 h were seeded in quadruplicate at equal densities (20,000-30,000 cells/well) into XF96 tissue culture plates (Seahorse Bioscience). Cell culture medium was changed 12 hours after cell seeding into unbuffered DMEM (8.3 g/l DMEM [Sigma], 2 mM Glutamax [Invitrogen] 5 mM Glucose [Sigma], 1.85 g/l NaCl [Sigma], adjusted to pH 7.4 with NaOH). Real-time measurements of OCR in […] in culture medium were conducted. OCR was measured over time at baseline and following consecutive injections of 1 μM Oligomycin, 0.5 μM FCCP and a mix of 1 μM Rotenone+1 μM Antimycin A. The basal mitochondrial OCR was calculated. The OCR values were normalized to cell numbers plated. To this end, the cells were stained using Cyquant (Life technologies) and fluorescence measurements were made using a microplate reader with excitation at 485 nm and emission detection at 530 nm [Tecan].

For assay [7], the system named is G-361. Described as above. Format: cell-based, human. To be noted: G-361 cells; 1 μM, 20 h pre-incubation; FIG. 4. Here is the method:
as §4, §5

Assay [8] deals with SK-MEL-2. The description is as above. The assay is classed as cell-based, human. To be noted: SK-MEL-2 cells; 1 μM, 20 h pre-incubation; FIG. 4. As for the experimental part: as §4, §5
Assay [9] has as its system melanoma cell lines (G-361, CHL-1, RPMI-7951, SK-MEL-2). Put plainly: Basal OCR, marker positive versus negative melanoma cell lines, XF96 analyzer. To be noted: 1 μM, 20 h treatment. The assay is classed as cell-based, human. Here is the method: as §4
Briefly, cells treated with 1 μM BAY 123 or JQ1 inhibitor for 20 h were seeded in quadruplicate at equal densities (20,000-30,000 cells/well) into XF96 tissue culture plates (Seahorse Bioscience). […] OCR was measured over time at baseline and following consecutive injections of 1 μM Oligomycin, 0.5 μM FCCP and a mix of 1 μM Rotenone+1 μM Antimycin A. The basal mitochondrial OCR was calculated. […] To this end, the cells were stained using Cyquant (Life technologies) and fluorescence measurements were made using a microplate reader with excitation at 485 nm and emission detection at 530 nm [Tecan].

Data on two compounds can be found in patent US20180164317A1, “METHOD FOR STRATIFICATION OF MELANOMA PATIENTS BY DETERMINATION OF OXYGEN CONSUMPTION, PPARGC1A, PPARGC1B AND MITF LEVELS” (Bayer Pharma Aktiengesellschaft, priority 2015, published 2018).

One may read the GI50 as the concentration giving 50% growth inhibition. A higher GI50 goes with lower sensitivity of the cells.

For `CNC(=O)N1N=C(c2ccc(N3CCN(C)CC3)cc2)c2cc(OC)c(OC)cc2C[C@@H]1C` [BAY 123, (4S)-7,8-dimethoxy-N,4-dimethyl-1-[4-(4-methylpiperazin-1-yl)phenyl]-4,5-dihydro-3H-2,3-benzodiazepine-3-carboxamide], the GI50 in the assay with A-431 is 930 nM; in the assay on CHL-1 [1], 70 nM; in the assay on COLO-792 [2], 80 nM; with G-361 [3] it was 250 nM; with HMCB, 570 nM; in the assay on Hs 852.T, 4440 nM. For the same compound, the GI50 with IPC-298 is 150 nM; in the assay with MEL-HO, 470 nM; with RPMI-7951, 2180 nM; in the assay on SK-MEL-28, 1260 nM; in the assay with SK-MEL-2 [4] it was > 20000 nM. Further, the “basal OCR with versus without treatment” value in the assay on COLO-792 [5], in the assay on CHL-1 [6], in the assay on G-361 [7] and in the assay with SK-MEL-2 [8] was “Reduction of basal OCR” in each case. Moreover, in assay [9], the “decrease of basal OCR in PPARGC1A, PPARGC1B, MITF positive melanoma (G-361, CHL-1) compared to negative melanoma cell lines (RPMI-7951, SK-MEL-2)” value was “decreased more dramatically”.

As for `Cc1sc2c(c1C)C(c1ccc(Cl)cc1)=NC(CC(=O)OC(C)(C)C)c1nnc(C)n1-2` (racemic) [JQ1, [(R,S)-4-(4-Chlorophenyl)-2,3,9-trimethyl-6H-1-thia-5,7,8,9a-tetraaza-cyclopenta[e]azulen-6-yl]-acetic acid tert-butyl ester], the GI50 in the assay with A-431 amounted to 720 nM; with CHL-1 [1], 60 nM; in the assay with COLO-792 [2] it was 50 nM; in the assay with G-361 [3] it was 240 nM; in the assay on HMCB it was 330 nM; in the assay with Hs 852.T, 7570 nM. Moreover, the GI50 was 60 nM in the assay on IPC-298; 190 nM with MEL-HO; 1460 nM in the assay on RPMI-7951; 1760 nM in the assay with SK-MEL-28; > 20000 nM in the assay on SK-MEL-2 [4]. The “basal OCR with versus without treatment” value in the assay on COLO-792 [5], in the assay on CHL-1 [6], with G-361 [7] and in the assay on SK-MEL-2 [8] was “Reduction of basal OCR” throughout. Besides, the “decrease of basal OCR in PPARGC1A, PPARGC1B, MITF positive melanoma (G-361, CHL-1) compared to negative melanoma cell lines (RPMI-7951, SK-MEL-2)” value in [9] was “decreased more dramatically”.
